From patent US20100179093A1, “Neoropeptide-2-Receptor (Y-2R) Agonists” (priority 2008, published 2010)

What was measured:
Assay type in all cases: cell-based
Y5R = target: T1, Y5R (Homo sapiens, UniProt Q15761); assay: CaFlux Assay (FLIPR), Y5R; conditions: for Emax: read-out: Y5R FLIPR, percentage in parentheses under the EC50;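 on Emax: percent of the maximal response of the positive control agonist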
T1 sequence (Q15761 1-445): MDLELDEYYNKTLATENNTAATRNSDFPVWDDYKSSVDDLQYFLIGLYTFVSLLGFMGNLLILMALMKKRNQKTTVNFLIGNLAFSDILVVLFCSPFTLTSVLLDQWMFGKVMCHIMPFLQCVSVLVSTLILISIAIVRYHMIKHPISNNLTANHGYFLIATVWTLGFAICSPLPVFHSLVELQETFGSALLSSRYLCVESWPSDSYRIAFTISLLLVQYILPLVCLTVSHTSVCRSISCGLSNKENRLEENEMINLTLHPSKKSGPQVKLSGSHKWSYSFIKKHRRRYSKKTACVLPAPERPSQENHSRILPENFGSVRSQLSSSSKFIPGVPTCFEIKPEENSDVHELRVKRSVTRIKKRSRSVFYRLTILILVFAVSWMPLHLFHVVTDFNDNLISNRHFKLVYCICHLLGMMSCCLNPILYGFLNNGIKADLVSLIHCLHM

Y1R = target: T2, Y1R (Homo sapiens, UniProt P25929); assay: CaFlux Assay (FLIPR), Y1R
T2 sequence (P25929 1-384): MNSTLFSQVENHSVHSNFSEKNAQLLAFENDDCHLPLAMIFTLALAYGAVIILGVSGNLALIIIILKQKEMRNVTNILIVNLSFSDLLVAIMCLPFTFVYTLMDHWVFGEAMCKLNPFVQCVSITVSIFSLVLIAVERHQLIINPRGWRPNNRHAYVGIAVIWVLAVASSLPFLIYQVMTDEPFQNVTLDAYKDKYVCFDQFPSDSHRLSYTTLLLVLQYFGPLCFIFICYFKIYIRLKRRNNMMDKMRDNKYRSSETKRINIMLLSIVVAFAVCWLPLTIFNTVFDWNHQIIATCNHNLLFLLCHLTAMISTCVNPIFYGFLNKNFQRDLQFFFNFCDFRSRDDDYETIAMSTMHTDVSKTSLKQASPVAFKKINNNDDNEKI

Y4R = Y4R (Homo sapiens, UniProt P50391); assay: CaFlux Assay (FLIPR), Y4R
Y4R, sequence (P50391 whole entry): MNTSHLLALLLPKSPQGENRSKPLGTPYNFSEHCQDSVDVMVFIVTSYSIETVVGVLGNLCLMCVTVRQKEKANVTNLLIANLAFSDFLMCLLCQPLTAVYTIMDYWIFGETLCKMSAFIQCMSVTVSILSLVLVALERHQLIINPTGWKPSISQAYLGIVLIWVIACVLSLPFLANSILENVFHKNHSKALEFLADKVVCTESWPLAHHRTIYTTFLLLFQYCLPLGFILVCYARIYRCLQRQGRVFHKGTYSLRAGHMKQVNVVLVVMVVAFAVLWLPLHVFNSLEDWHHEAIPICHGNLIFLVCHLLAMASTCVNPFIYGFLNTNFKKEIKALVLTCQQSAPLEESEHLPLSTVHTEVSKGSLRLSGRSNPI

hNPY2R [1] = target: T3, hNPY2R (Homo sapiens, UniProt P49146); assay: cAMP Agonist Assay, HEK293/hNPY2R cells; set-up: expressed in transfected cells; host or cells: HEK293/hNPY2R (G418 selection)
T3 sequence (P49146 1-381): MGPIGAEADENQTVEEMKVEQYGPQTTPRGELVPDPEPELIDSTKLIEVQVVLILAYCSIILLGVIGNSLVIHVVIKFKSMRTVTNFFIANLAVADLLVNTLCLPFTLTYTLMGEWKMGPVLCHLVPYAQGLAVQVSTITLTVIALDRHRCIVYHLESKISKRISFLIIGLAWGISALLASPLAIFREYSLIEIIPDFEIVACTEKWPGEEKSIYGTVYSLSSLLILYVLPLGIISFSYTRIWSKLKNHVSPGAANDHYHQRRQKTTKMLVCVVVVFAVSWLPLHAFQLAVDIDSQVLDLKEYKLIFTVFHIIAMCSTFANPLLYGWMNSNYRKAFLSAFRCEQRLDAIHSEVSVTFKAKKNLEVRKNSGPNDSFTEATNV

hNPY2R [2] = target: T3, hNPY2R; assay: CaFlux Assay (FLIPR), Y2R; set-up: expressed in transfected cells; host or cells: HEK-293 stably expressing G protein chimera Gaqi9

| SMILES | EC50 (Y5R) [nM] | Emax (Y5R) [%] | EC50 (Y1R) [nM] | EC50 (Y4R) [nM] | EC50 (hNPY2R [1]) [nM] | EC50 (hNPY2R [2]) [nM] |
| --- | --- | --- | --- | --- | --- | --- |
| CCCCCCCCCCCCCCCCCCCC(=O)NCCOCCOCCNC(=O)CCC(=O)NCCCC[C@H](NC(=O)[C@@H](N)[C@@H](C)CC)C(=O)N1CCN(c2ccc3ncn(CC(=O)N[C@@H](CCCNC(=N)N)C(=O)N[C@@H](Cc4c[nH]cn4)C(=O)N[C@@H](Cc4ccc(O)cc4)C(=O)N[C@@H](CC(C)C)C(=O)N[C@@H](CC(N)=O)C(=O)N[C@@H](Cc4c[nH]c5ccccc45)C(=O)N[C@H](C(=O)N[C@H](C(=O)N[C@@H](CCCNC(=N)N)C(=O)N[C@@H](CCC(N)=O)C(=O)N(C)[C@@H](CCCNC(=N)N)C(=O)N[C@@H](Cc4ccc(O)cc4)C(N)=O)[C@@H](C)O)C(C)C)c(=O)c3c2)CC1 [Example 37] | 77.9 | 48 | > 5000 | > 5000 | 0.13 | 0.367 |
| CCCCCCCCCCCCCCCCCCCC(=O)NCCCCCC(=O)NCCCC[C@H](NC(=O)[C@@H](N)[C@@H](C)CC)C(=O)N1CCN(c2ccc3ncn(CC(=O)N[C@@H](CCCNC(=N)N)C(=O)N[C@@H](Cc4c[nH]cn4)C(=O)N[C@@H](Cc4ccc(O)cc4)C(=O)N[C@@H](CC(C)C)C(=O)N[C@@H](CC(N)=O)C(=O)N[C@@H](Cc4c[nH]c5ccccc45)C(=O)N[C@H](C(=O)N[C@H](C(=O)N[C@@H](CCCNC(=N)N)C(=O)N[C@@H](CCC(N)=O)C(=O)N(C)[C@@H](CCCNC(=N)N)C(=O)N[C@@H](Cc4ccc(O)cc4)C(N)=O)[C@@H](C)O)C(C)C)c(=O)c3c2)CC1 [Example 30] | 306 | 28 | > 5000 | > 5000 | 0.14 | 0.96 |
| CCCCCCCCCCCCCCCC(=O)N[C@@H](CCC(=O)O)C(=O)NCCCC[C@H](NC(=O)[C@@H](N)[C@@H](C)CC)C(=O)N1CCN(c2ccc3ncn(CC(=O)N[C@@H](CCCNC(=N)N)C(=O)N[C@@H](Cc4c[nH]cn4)C(=O)N[C@@H](Cc4ccc(O)cc4)C(=O)N[C@@H](CC(C)C)C(=O)N[C@@H](CC(N)=O)C(=O)N[C@@H](Cc4c[nH]c5ccccc45)C(=O)N[C@H](C(=O)N[C@H](C(=O)N[C@@H](CCCNC(=N)N)C(=O)N[C@@H](CCC(N)=O)C(=O)N(C)[C@@H](CCCNC(=N)N)C(=O)N[C@@H](Cc4ccc(O)cc4)C(N)=O)[C@@H](C)O)C(C)C)c(=O)c3c2)CC1 [Example 21] | 4180 | – | > 5000 | > 5000 | 1 | 0.43 |
| CCCCCCCCCCCCCCCC(=O)NCCOCCOCCNC(=O)CCC(=O)NCCCC[C@H](NC(=O)[C@@H](N)[C@@H](C)CC)C(=O)N1CCN(c2ccc3ncn(CC(=O)N[C@@H](CCCNC(=N)N)C(=O)N[C@@H](Cc4c[nH]cn4)C(=O)N[C@@H](Cc4ccc(O)cc4)C(=O)N[C@@H](CC(C)C)C(=O)N[C@@H](CC(N)=O)C(=O)N[C@@H](Cc4c[nH]c5ccccc45)C(=O)N[C@H](C(=O)N[C@H](C(=O)N[C@@H](CCCNC(=N)N)C(=O)N[C@@H](CCC(N)=O)C(=O)N(C)[C@@H](CCCNC(=N)N)C(=O)N[C@@H](Cc4ccc(O)cc4)C(N)=O)[C@@H](C)O)C(C)C)c(=O)c3c2)CC1 [Example 36] | 481 | 73 | > 5000 | > 5000 | 0.15 | 0.138 |
| CCCCCCCCCCCCCCCC(=O)N[C@@H](CCC(=O)N[C@@H](CCC(=O)NCCCC[C@H](NC(=O)[C@@H](N)[C@@H](C)CC)C(=O)N1CCN(c2ccc3ncn(CC(=O)N[C@@H](CCCNC(=N)N)C(=O)N[C@@H](Cc4c[nH]cn4)C(=O)N[C@@H](Cc4ccc(O)cc4)C(=O)N[C@@H](CC(C)C)C(=O)N[C@@H](CC(N)=O)C(=O)N[C@@H](Cc4c[nH]c5ccccc45)C(=O)N[C@H](C(=O)N[C@H](C(=O)N[C@@H](CCCNC(=N)N)C(=O)N[C@@H](CCC(N)=O)C(=O)N(C)[C@@H](CCCNC(=N)N)C(=O)N[C@@H](Cc4ccc(O)cc4)C(N)=O)[C@@H](C)O)C(C)C)c(=O)c3c2)CC1)C(=O)O)C(=O)O [Example 25] | 443 | 70 | > 5000 | > 5000 | 0.22 | 0.08 |
